Reference: PMC10700596 (Nature Communications, 2023)
“And” between values parts separate entries of the source, which are not always exact repeats. Identical values can stand only once. “Also recorded” adds a separate entry of the source.

Tests used:
IKK-beta = IKK-beta (Homo sapiens, UniProt O14920); assay: biochemical; format: binding; conditions: 10000 nM; read-out: Percent Control
ERBB2 = ERBB2 (Homo sapiens, UniProt P04626); assay: biochemical; format: binding; conditions: 10000 nM; read-out: Percent Control
JNK3 = JNK3 (Homo sapiens, UniProt P53779); assay: biochemical; format: binding; conditions: 10000 nM; read-out: Percent Control
EP4R = molecular target: T1, EP4R (Homo sapiens, UniProt P35408); assay: cell-based; conditions: read-out: cAMP Assay KB
T1 construct: Tango fusion cassette (only 'tango' is printed); expressed in transfected cells; host or cells: HTLA cells (tTA-dependent luciferase reporter, β-arrestin2-TEV fusion)

[1] = molecular target: T2, JAK3(JH1domain-catalytic) (Homo sapiens, UniProt P52333); assay: KINOMEscan; format: binding
T2 construct: JAK3(JH1domain-catalytic); purchased Eurofins DiscoverX KINOMEscan (scanEDGE, 97 kinases)

MET = MET (Homo sapiens, UniProt P08581); assay: biochemical; format: binding; conditions: 10000 nM; read-out: Percent Control
Source text: (§1) . […] This panel includes several adverse drug reaction receptors such as the serotonin receptor 5HT2b, M1 and M2 muscarinic receptors and adrenergic receptors. […]. page 7:
(§2) Supplementary Figure 7: Non-GPCR off-target screening for 74. a)-e) Dose-response curves of 74 at […]
(§3) proliferator-activated receptor gamma (PPARγ, Eurofins item G124). Data in a)-e) and g)-i) represent two technical replicates. Source data are provided as a Source Data file.
(§4) (1 picture or pasted object on this page, not shown here)

ERK1 = ERK1 (Homo sapiens, UniProt P27361); assay: biochemical; format: binding; conditions: 10000 nM; read-out: Percent Control
Source text: as §1, §2, §3, §4

DCAMKL1 = DCAMKL1 (Homo sapiens, UniProt O15075); assay: biochemical; format: binding; conditions: 10000 nM; read-out: Percent Control
Source text: as §1, §2, §3, §4

INSR = INSR (Homo sapiens, UniProt P06213); assay: biochemical; format: binding; conditions: 10000 nM; read-out: Percent Control
Source text: as §1, §2, §3, §4

NMUR2 = NMUR2 (Homo sapiens, UniProt Q9GZQ4); format: cell-based
Experimental: (§5) EP4R. e) EP4R functional cyclic AMP production assay. Dose-response curves were obtained for 74 (KB […]
(§6) production assays for the prostaglandin D2 (PGD2) receptor or the Thromboxane A2 (TP) receptor, respectively. AZD1981 and Ramatroban were used as control PGD2 and TP receptor antagonists, respectively. U46619 served as a TP receptor agonist. H) GPCRome off-target screening of 74 at 10 µM. i) Potential off-targets that met the activity threshold (3-fold of increase of basal) in the GPCRome screen (GPR174, GPR160, or NMUR2) were investigated with full dose-response curves in PRESTO-Tango […]
(§7) Data in a)-d), f)-g), i) represents mean ± SEM of three independent experiments. Data in e) represents two technical replicates. Data in h) represents mean ± SEM of four technical replicates. Source data are provided as a Source Data file.
as §4

GPR160 = GPR160 (Homo sapiens, UniProt Q9UJ42); format: cell-based
Experimental: as §5, §6, §7, §4

GPR174 = GPR174 (Homo sapiens, UniProt Q9BXC1); format: cell-based
Experimental: as §5, §6, §7, §4

[2] = molecular target: T3, TYK2(JH1domain-catalytic) (Homo sapiens, UniProt P29597); assay: KINOMEscan; format: binding
T3 construct: TYK2(JH1domain-catalytic); purchased Eurofins DiscoverX KINOMEscan (scanEDGE, 97 kinases)
T3 sequence (P29597 888-1187 limits assumed): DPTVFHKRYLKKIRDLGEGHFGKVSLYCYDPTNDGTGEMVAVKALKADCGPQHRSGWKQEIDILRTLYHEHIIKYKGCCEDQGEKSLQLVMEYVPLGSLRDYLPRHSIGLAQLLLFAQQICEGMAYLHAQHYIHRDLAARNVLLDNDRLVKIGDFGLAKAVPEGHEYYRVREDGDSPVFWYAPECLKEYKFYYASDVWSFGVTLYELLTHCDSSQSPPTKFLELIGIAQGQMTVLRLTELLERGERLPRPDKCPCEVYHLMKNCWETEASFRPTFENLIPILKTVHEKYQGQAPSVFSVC

CSNK1G2 = CSNK1G2 (Homo sapiens, UniProt P78368); assay: biochemical; format: binding; conditions: 10000 nM; read-out: Percent Control
[3] = molecular target: ABL1(T315I)-phosphorylated (Homo sapiens, UniProt P00519, T315I); assay: biochemical; format: binding; conditions: 10000 nM; read-out: Percent Control
FGFR3 = FGFR3 (Homo sapiens, UniProt P22607); assay: biochemical; format: binding; conditions: 10000 nM; read-out: Percent Control
CDK3 = CDK3 (Homo sapiens, UniProt Q00526); assay: biochemical; format: binding; conditions: 10000 nM; read-out: Percent Control
mice [4] = format: in vivo
mice [5] = format: in vivo; conditions: absence of injury
[6] = cited from earlier work
[7] = 10000 nM, read-out: Percent Control

T2 sequence (P52333 782-1124 limits assumed): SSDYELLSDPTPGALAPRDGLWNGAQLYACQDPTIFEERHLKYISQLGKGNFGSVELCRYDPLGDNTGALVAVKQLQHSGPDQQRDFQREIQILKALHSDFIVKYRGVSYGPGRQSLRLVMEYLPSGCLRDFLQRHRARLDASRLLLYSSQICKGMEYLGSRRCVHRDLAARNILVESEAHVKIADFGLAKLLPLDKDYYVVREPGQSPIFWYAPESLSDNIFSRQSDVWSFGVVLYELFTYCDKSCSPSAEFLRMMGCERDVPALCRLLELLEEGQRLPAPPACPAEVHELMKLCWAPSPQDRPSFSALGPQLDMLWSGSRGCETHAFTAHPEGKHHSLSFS
Sequence of DCAMKL1 (O15075 whole entry): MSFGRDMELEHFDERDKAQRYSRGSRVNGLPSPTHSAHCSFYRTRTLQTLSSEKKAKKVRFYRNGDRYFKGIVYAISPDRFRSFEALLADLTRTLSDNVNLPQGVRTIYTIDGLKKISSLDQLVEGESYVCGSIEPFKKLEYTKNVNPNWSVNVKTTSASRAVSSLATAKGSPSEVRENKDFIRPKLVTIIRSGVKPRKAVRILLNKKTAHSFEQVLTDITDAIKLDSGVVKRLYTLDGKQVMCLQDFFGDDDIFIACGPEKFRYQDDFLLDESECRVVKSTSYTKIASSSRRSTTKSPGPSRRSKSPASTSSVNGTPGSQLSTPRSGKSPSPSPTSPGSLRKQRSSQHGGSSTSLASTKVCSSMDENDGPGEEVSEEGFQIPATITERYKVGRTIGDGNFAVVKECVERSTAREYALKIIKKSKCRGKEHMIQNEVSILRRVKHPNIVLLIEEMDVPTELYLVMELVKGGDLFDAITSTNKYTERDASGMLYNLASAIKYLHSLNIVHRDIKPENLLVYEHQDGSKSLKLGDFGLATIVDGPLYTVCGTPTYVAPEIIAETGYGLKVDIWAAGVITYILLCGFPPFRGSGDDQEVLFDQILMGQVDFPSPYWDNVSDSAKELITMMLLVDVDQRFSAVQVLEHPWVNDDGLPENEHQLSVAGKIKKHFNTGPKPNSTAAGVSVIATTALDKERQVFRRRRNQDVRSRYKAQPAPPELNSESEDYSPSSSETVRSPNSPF
Sequence of CSNK1G2 (P78368 whole entry): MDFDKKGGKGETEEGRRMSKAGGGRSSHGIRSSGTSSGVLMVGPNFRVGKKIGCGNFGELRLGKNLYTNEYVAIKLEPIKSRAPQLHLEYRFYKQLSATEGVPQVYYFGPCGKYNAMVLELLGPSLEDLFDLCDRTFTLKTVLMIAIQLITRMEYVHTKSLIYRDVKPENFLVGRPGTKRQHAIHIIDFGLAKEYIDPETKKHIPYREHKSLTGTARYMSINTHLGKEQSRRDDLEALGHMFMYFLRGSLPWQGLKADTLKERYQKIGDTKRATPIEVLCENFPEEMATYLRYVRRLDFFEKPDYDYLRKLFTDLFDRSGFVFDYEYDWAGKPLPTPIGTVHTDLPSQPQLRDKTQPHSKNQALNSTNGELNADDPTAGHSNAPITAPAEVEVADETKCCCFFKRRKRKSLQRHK
Sequence of CDK3 (Q00526 whole entry): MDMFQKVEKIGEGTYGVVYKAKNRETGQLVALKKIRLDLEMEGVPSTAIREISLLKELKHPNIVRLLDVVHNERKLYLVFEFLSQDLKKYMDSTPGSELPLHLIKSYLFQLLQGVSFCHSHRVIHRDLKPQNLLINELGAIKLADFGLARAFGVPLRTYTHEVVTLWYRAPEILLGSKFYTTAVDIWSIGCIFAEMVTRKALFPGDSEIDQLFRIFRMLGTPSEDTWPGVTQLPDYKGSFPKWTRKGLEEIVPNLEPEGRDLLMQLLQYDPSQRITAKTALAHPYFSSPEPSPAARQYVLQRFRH
Sequence of GPR160 (Q9UJ42 whole entry): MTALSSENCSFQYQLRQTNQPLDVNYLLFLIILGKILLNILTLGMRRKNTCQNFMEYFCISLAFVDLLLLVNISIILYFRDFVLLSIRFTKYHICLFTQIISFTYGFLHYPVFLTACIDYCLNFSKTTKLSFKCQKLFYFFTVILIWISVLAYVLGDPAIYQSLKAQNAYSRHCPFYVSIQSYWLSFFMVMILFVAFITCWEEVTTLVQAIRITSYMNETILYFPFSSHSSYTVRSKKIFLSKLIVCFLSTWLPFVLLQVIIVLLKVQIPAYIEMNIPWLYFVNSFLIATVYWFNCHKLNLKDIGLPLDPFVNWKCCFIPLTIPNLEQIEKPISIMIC
Sequence of GPR174 (Q9BXC1 whole entry): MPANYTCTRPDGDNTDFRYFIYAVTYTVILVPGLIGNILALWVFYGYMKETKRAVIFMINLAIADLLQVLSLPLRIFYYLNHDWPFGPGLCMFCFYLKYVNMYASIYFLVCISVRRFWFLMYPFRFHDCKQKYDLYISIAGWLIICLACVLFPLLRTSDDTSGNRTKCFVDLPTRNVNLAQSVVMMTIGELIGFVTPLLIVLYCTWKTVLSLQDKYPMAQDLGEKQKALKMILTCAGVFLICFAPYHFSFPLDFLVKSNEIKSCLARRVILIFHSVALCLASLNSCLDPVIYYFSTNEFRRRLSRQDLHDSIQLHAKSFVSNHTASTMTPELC
Sequence of FGFR3 (P22607 23-806): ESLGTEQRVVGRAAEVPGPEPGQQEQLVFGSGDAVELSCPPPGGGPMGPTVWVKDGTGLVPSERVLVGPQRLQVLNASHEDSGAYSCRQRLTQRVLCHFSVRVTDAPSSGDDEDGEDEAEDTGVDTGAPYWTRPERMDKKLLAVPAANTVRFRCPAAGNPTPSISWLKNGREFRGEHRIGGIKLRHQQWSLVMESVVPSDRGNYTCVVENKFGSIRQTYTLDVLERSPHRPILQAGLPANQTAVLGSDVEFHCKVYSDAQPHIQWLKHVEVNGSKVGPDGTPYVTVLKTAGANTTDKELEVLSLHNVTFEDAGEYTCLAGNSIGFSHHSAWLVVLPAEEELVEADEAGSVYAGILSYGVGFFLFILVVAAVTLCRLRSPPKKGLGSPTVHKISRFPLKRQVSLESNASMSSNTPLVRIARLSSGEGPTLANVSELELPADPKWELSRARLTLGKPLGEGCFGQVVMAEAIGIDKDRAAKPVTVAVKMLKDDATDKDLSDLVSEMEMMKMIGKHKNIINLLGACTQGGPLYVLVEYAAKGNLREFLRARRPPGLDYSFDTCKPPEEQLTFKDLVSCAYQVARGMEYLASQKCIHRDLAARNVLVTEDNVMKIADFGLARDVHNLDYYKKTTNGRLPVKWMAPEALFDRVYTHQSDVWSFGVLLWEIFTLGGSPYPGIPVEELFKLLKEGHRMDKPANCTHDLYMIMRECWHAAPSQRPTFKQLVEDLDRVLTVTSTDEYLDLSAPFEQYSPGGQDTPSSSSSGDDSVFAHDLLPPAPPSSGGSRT
T1 sequence (P35408 whole entry, the tested form may be a part): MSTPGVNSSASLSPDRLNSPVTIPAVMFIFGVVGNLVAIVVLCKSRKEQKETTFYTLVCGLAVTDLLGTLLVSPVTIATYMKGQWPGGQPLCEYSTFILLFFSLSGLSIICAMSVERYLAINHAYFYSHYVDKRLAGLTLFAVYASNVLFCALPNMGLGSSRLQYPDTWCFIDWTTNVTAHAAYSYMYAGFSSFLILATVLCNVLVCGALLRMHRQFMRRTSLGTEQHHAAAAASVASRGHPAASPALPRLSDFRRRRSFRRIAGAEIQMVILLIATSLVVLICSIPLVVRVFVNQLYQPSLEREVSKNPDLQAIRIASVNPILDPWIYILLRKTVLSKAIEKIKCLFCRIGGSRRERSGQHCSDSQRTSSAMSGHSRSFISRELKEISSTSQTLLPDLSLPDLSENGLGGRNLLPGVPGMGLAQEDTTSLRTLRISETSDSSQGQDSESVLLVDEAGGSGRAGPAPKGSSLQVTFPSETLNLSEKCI
Sequence of IKK-beta (O14920 whole entry): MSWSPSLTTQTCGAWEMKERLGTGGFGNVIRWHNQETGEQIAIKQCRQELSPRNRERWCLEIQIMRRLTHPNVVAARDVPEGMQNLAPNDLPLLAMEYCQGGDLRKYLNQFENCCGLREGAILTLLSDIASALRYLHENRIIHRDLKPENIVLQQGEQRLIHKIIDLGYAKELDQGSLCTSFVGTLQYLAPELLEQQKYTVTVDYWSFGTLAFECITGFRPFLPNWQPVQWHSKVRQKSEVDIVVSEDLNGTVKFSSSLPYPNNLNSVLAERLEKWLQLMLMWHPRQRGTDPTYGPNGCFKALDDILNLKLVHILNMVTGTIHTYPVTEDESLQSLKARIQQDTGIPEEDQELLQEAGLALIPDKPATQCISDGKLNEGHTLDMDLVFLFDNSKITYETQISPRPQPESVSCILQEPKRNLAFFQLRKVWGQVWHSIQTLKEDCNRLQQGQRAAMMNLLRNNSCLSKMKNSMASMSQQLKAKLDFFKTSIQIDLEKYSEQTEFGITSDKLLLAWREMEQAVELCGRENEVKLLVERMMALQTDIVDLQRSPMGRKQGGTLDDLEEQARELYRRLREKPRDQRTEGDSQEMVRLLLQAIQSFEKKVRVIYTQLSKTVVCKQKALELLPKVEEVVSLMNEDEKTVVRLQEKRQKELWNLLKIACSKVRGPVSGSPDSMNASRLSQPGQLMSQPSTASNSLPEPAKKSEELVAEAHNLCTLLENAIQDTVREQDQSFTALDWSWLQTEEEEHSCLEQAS
Sequence of JNK3 (P53779 whole entry): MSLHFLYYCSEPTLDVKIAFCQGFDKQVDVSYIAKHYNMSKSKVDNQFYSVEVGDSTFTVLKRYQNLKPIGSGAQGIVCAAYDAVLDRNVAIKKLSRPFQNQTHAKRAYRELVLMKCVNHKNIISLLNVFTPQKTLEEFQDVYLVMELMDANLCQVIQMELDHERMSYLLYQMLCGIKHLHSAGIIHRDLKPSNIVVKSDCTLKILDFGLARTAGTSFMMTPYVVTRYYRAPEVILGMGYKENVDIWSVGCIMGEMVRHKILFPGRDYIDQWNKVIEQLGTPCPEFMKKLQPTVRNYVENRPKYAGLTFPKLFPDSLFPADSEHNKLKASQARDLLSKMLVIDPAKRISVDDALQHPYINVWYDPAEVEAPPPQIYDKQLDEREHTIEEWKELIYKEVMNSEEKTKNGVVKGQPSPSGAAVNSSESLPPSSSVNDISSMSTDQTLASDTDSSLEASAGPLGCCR

## O=C(O)C1CCC2(CC1)CC(Nc1ncnc3[nH]c4c(F)cccc4c13)C2 (stereo not drawn) [Compound 74, OC(=O)C1CCC2(CC(C2)NC=3N=CN=C4NC=5C(F)=CC=CC5C34)CC1]
IKK-beta
  remaining activity at 10 µM: 3.2%
ERBB2
  remaining activity at 10 µM: 49%
JNK3
  remaining activity at 10 µM: 40%
EP4R
  Kb: 16 nM
[1]; [7]
  remaining binding at 10 µM: 0.25%
[1]; JAK3, [Compound] 0.0001 nM
  Signal (qPCR): 1.3e-6 and 8.87e-7
[1]; JAK3, [Compound] 0.001 nM
  Signal (qPCR): 1.24e-6 and 1.2e-6
[1]; JAK3, [Compound] 0.01 nM
  Signal (qPCR): 1.37e-6 and 1.42e-6
[1]; JAK3, [Compound] 0.169 nM
  Signal (qPCR): 1.07e-6 and 1.21e-6
[1]; JAK3, [Compound] 0.508 nM
  Signal (qPCR): 1.06e-6 and 1.26e-6
[1]; JAK3, [Compound] 1.52 nM
  Signal (qPCR): 1.19e-6 and 1.38e-6
[1]; JAK3, [Compound] 4.57 nM
  Signal (qPCR): 1.36e-6 and 1.47e-6
[1]; JAK3, [Compound] 13.7 nM
  Signal (qPCR): 1.11e-6 and 1.19e-6
[1]; JAK3, [Compound] 41.2 nM
  Signal (qPCR): 1.18e-6 and 1.3e-6
[1]; JAK3, [Compound] 123 nM
  Signal (qPCR): 1.07e-6 and 1.06e-6
[1]; JAK3, [Compound] 370 nM
  Signal (qPCR): 8.09e-7 and 7.97e-7
[1]; JAK3, [Compound] 3330 nM
  Signal (qPCR): 1.07e-7
[1]; JAK3, [Compound] 10000 nM
  Signal (qPCR): 2.42e-8 and 3.31e-8
MET
  remaining activity at 10 µM: 100%
ERK1
  remaining activity at 10 µM: 100%
DCAMKL1
  remaining activity at 10 µM: 78%
INSR
  remaining activity at 10 µM: 90%
NMUR2
  activity in full dose-response: no activity
GPR160
  activity in full dose-response: no activity
GPR174
  activity in full dose-response: no activity
[2]; [7]
  remaining binding at 10 µM: 0%
[2]; TYK2, [Compound] 0.0001 nM
  Signal (qPCR): 4e-6 and 3.91e-6
[2]; TYK2, [Compound] 0.01 nM
  Signal (qPCR): 3.79e-6 and 3.64e-6
[2]; TYK2, [Compound] 0.169 nM
  Signal (qPCR): 3.6e-6 and 3.79e-6
[2]; TYK2, [Compound] 0.508 nM
  Signal (qPCR): 4.38e-6 and 4.26e-6
[2]; TYK2, [Compound] 1.52 nM
  Signal (qPCR): 4.63e-6 and 4.29e-6
[2]; TYK2, [Compound] 13.7 nM
  Signal (qPCR): 3.86e-6 and 3.5e-6
[2]; TYK2, [Compound] 41.2 nM
  Signal (qPCR): 4.1e-6 and 3.94e-6
[2]; TYK2, [Compound] 123 nM
  Signal (qPCR): 2.97e-6 and 3.29e-6
[2]; TYK2, [Compound] 370 nM
  Signal (qPCR): 2.73e-6 and 2.71e-6
[2]; TYK2, [Compound] 3330 nM
  Signal (qPCR): 6.46e-7 and 5.93e-7
[2]; TYK2, [Compound] 10000 nM
  Signal (qPCR): 1.74e-7 and 2.08e-7
CSNK1G2
  remaining activity at 10 µM: 54%
[3]
  remaining activity at 10 µM: 82%
FGFR3
  remaining activity at 10 µM: 81%
CDK3
  remaining activity at 10 µM: 100%

## O=C([O-])C1CCC2(CC1)CC(Nc1ncnc3[nH]c4c(F)cccc4c13)C2.[Na+] (stereo not drawn) [Compound 77, [Na+].[O-]C(=O)C1CCC2(CC(C2)NC=3N=CN=C4NC=5C(F)=CC=CC5C34)CC1]
Mice [4]; 30 mg/kg i.p. daily on four consecutive days
  effect on CFA-induced paw edema: significantly reduced the progression of CFA-induced inflammation; also recorded: significantly slowed the development of paw edema
Mice [4]; 30 mg/kg i.p. daily on four consecutive days after CFA
  reduction of paw thickness versus the control group: up to 20%
Mice [4]; 77 30 mg/kg, CFA day 1, 1 h after dosing, % of CFA D1 thickness, individual mice 6-10 and Average, 30 mg/kg
  Thickness D1 %BL: 92.0% and 93.2% and 87.6% and 98.7% and 95.8%
Mice [4]; 77 30 mg/kg, CFA day 1, 1 h after dosing, individual mice 6-10 and Average, 30 mg/kg
  Thickness D1: 3.58 and 3.3 and 3.4 and 3.89 and 3.68
Mice [4]; 77 30 mg/kg, CFA day 2, 1 h, % of CFA D1 thickness, individual mice 6-10 and Average, 30 mg/kg
  Thickness D2 (1h) %BL: 115.7% and 120.9% and 116.5% and 109.1% and 119.8%
Mice [4]; 77 30 mg/kg, CFA day 2, 1 h, individual mice 6-10 and Average, 30 mg/kg
  Thickness D2 (1h): 4.5 and 4.28 and 4.52 and 4.3 and 4.6
Mice [4]; 77 30 mg/kg, CFA day 2 before that day's dose (vehicle head: CFA D2), individual mice 6-10 and Average, 30 mg/kg
  Thickness BL D2: 4.81 and 4.39 and 4.69 and 4.16 and 4.59
Mice [4]; 77 30 mg/kg, CFA day 2 before that day's dose, % of CFA D1 thickness, individual mice 6-10 and Average, 30 mg/kg
  Thickness BL D2 %: 123.7% and 124.0% and 120.9% and 105.6% and 119.5%
Mice [4]; 77 30 mg/kg, CFA day 3, 1 h, % of CFA D1 thickness, individual mice 6-10 and Average, 30 mg/kg
  Thickness D3 (1h) %: 128.5% and 117.8% and 103.9% and 101.5% and 122.4%
Mice [4]; 77 30 mg/kg, CFA day 3, 1 h, individual mice 6-10 and Average, 30 mg/kg
  Thickness D3 (1h): 5 and 4.17 and 4.03 and 4 and 4.7
Mice [4]; 77 30 mg/kg, CFA day 3 before that day's dose, % of CFA D1 thickness, individual mice 6-10 and Average, 30 mg/kg
  Thickness CFA D3 %: 131.9% and 121.8% and 110.3% and 105.1% and 128.9%
Mice [4]; 77 30 mg/kg, CFA day 3 before that day's dose, individual mice 6-10 and Average, 30 mg/kg
  Thickness CFA D3: 5.13 and 4.31 and 4.28 and 4.14 and 4.95
Mice [4]; 77 30 mg/kg, CFA day 4, 1 h, % of CFA D1 thickness, individual mice 6-10 and Average, 30 mg/kg
  Thickness D4 (1h) %: 113.1% and 107.3% and 103.1% and 103.6% and 104.7%
Mice [4]; 77 30 mg/kg, CFA day 4, 1 h, individual mice 6-10 and Average, 30 mg/kg
  Thickness D4 (1h): 4.4 and 3.8 and 4 and 4.08 and 4.02
Mice [4]; 77 30 mg/kg, CFA day 4 before that day's dose, % of CFA D1 thickness, individual mice 6-10 and Average, 30 mg/kg
  Thickness CFA D4 %: 118.3% and 110.2% and 107.5% and 106.1% and 109.1%
Mice [4]; 77 30 mg/kg, CFA day 4 before that day's dose, individual mice 6-10 and Average, 30 mg/kg
  Thickness CFA D4: 4.6 and 3.9 and 4.17 and 4.18 and 4.19
Mice [4]; 77 30 mg/kg, CFA day 5, % of CFA D1 thickness, individual mice 6-10 and Average, 30 mg/kg
  Thickness CFA D5 %: 100.0% and 107.3% and 97.4% and 90.6% and 104.2%
Mice [4]; 77 30 mg/kg, CFA day 5, individual mice 6-10 and Average, 30 mg/kg
  Thickness CFA D5: 3.89 and 3.8 and 3.78 and 3.57 and 4
Mice [4]; 77 30 mg/kg, CFA day 7, % of CFA D1 thickness, individual mice 6-10 and Average, 30 mg/kg
  Thickness CFA D7 %: 102.8% and 96.0% and 90.2% and 86.0% and 106.8%
Mice [4]; 77 30 mg/kg, CFA day 7, individual mice 6-10 and Average, 30 mg/kg
  Thickness CFA D7: 4 and 3.4 and 3.5 and 3.39 and 4.1
Mice [5]
  effect on baseline mechanical thresholds: no effect

## CCc1nc2c(C)nc(C)cc2n1-c1ccc(CCNC(=O)NS(=O)(=O)c2ccc(C)cc2)cc1 [Grapiprant, reference compound]
[6]
  reported oral bioavailability: 5%
